Patent US8158811B2, “Unsaturated fatty hydroxy acid derivatives and the dermocosmetologic use thereof” (Pierre Fabre Dermo-Cosmetique, priority 2005, dated 2012)

Assays:
[1] = test system: transglutaminase 1 (TG1); assay: keratinocyte differentiation, real-time RT-PCR of transglutaminase 1 transcripts; assay type: cell-based, human; conditions: NHK, 48 hours
Method: (§1) Normal human keratinocytes (NHK) proliferate and differentiate in vitro, forming stratified layers which mimic the basal organisation of the skin. Extracellular calcium concentrations in excess of 0.1 mM initiate a cascade of genome and non-genome events which take the keratinocytes from a proliferative phase towards a differentiation phase. Keratinocyte differentiation can then be evaluated by studying the expression of several markers such as keratins 1 and 10, transglutaminase 1, desaturase DES2, involucrine, FATP4 and ABCG1 transporters. We therefore evaluated the effect of certain hydroxyalcene carboxylic acids in an in vitro culture model.
(§2) Normal human keratinocytes are isolated from skin explants. They are cultured in KSFM medium (Gibco) with a low calcium content (0.1 mM) containing 25 μg/ml of BPE (bovine pituitary extract) and […] of EGF (epithelium growth factor). 24 hours after culturing, differentiation is triggered by the addition of calcium (final concentration 1.2 mM). The active ingredients are added or not at the same time as calcium at concentrations of 100 and 1 μg/ml in order to determine whether or not they have a potentialising effect on differentiation. Cells were then analysed 48 hours after the addition of calcium and these products.
(§3) Total RNA was extracted under cold conditions from keratinocytes.
(§4) After reverse transcription of mRNA into cDNA, PCRs were made up in 96 well plates (iCycler quantitative PCR apparatus, BioRad). Expression of transcripts of transglutaminase, desaturase (DES2), ABCG1 and FATP4 were standardized with respect to the expression of reference genes (GAPDH, UBC, HPRT).

[2] = test system: ABCG1; assay: keratinocyte differentiation, real-time RT-PCR of ABCG1 transcripts; assay type: cell-based, human; conditions: NHK, 48 hours
Method: as §1, §2, §3, §4

[3] = test system: FATP4; assay: keratinocyte differentiation, real-time RT-PCR of FATP4 transcripts; assay type: cell-based, human; conditions: NHK, 48 hours
Method: as §1, §2, §3, §4

[4] = test system: desaturase DES2; assay: keratinocyte differentiation, real-time RT-PCR of DES2 transcripts; assay type: cell-based, human; conditions: NHK, 48 hours
Method: as §1, §2, §3, §4

[5] = test system: intracellular AOSs, fibroblast line L929; assay: in vitro assay of intracellular AOSs (H2DCF-DA probe) after H2O2/iron oxidative stress; assay type: cell-based, murin; conditions: pre-incubation 3 h, L929
Excerpt: We set up an in vitro study model of oxidative stress induced by H2O2/iron as H2O2 generates huge amounts of intracellular AOSs as a result of a chain reaction triggered by oxidation of membrane lipids.
This technique is based on the use of a fluorescent probe, 6-carboxy-2′,7′-dichlorodihydro fluorescein diacetate, di (acetoxymethyl ester) (H2DCF-DA) which once it penetrates into the cell is deacetylated by intracellular esterases and thus forms H2DCF. This product is oxidized by intracellular AOSs into a highly fluorescent compound: 2′,7′-dichlorofluorescein (DCF) (Suematsu M et al., 1996, Free Radicals Practical Approach, Punchard ed. P 83-99).
The materials and methods used for in vitro assay of intracellular AOSs are given below. • a) Cell tool • Cutaneous murin fibroblast cell line L929. • b) Materials • 96 well flat based microplate. • Cytofluor II cytofluorameter: Ref. PERCEPTIVE BIOSYSTEMS. • c) Reagents • Cell culture reagents: • Dulbecco's Modified Eagle Medium as the culture medium (DMEM) • Foetal calf serum • Phosphate buffer PBS pH 7.4 • Trypsin EDTA (1X) Fluorescent probe • 6-carboxy-2′,7′-dichlorodihydrofluorescein diacetate, di(acetoxymethyl ester) (PM.675,43) Cell stimulation products • Hydrogen peroxide (H2O2) 3% Ref. GIFRER (Gifrer Barbezat Laboratory) • Ferrous ammonium sulphate (Fe^2+) • Ferric ammonium sulphate (Fe^3+) • d) Products tested:
For the evaluation of unsaturated fatty hydroxy acid derivatives, the dilutions are prepared in freshly prepared culture medium for a concentration range of 0.02, 0.2, 2 and 20 ng/ml. • e) Protocol. Cell culturing.
Cells from the fibroblast line L929 were cultured in 96-well flat base microplates in 100 μl of DMEM supplemented with 10% foetal calf serum. These were incubated overnight at 37° C. in a humid atmosphere at 5% CO2. The blank plate without cells was evaluated using 6 wells.
Dilutions of the products to be tested and reference molecule were made up in culture medium without foetal calf serum then deposited in 7 wells at a rate of 100 μl per well.
Cells were then incubated for 3 hours at 37° C. in a humid atmosphere at 5% CO2.
Cells were rinsed in PBS 1X at a rate of 100 μl per well. They were then incubated for 30 minutes at 37° C. in a humid atmosphere at 5% CO2 with 50 μl of the H2DCF-DA probe at 5 μM.
After 30 minutes of contact with the probe alone, cells were incubated for 30 minutes at 37° C. in a humid atmosphere at 5% CO2 with the addition of 25 μl of H2O2 at 800 μM and 25 μl of ferrous iron and ferric iron solution at 8 mM in order to obtain final concentrations of 200 μM of H2O2 and 2 mM of ferrous iron and ferric iron.
Cells were then rinsed with PBS 1X at a rate of 100 μl per well then incubated for 30 minutes at 37° C. in a humid atmosphere at 5% CO2 with 100 μl of PBS 1X.
This incubation for 1 h 30 minutes at 37° C. allows intracellular esterases to deacetylate the probe into H2DCF which can be oxidized by the intracellular AOSs into DCF: a fluorescent compound whose formation is proportional to the quantity of intracellular AOSs.
The intensity of fluorescence is read on a cytofluorimeter at λexcitation=485 nm and λemission=530 nm. This reflects the amount of intracellular AOS produced.
The ratio below makes it possible to calculate the % protection against the production of intracellular AOSs for each product concentration tested (because the intensity of fluorescence or IF reflects the release of intracellular AOSs)
• Pre-incubation: 3 h • Number of tests=3 for all compounds. • Number of tests=18 for vit. E

[6] = test system: membrane lipids, fibroblast line L929; assay: TBARS test, lipid peroxidation after H2O2/Fe2+/Fe3+; assay type: cell-based, murin; conditions: 0.02 ng/ml, pretreated 16 hours
Excerpt: In order to evaluate membrane changes, we measured lipid peroxidation by in vitro assay of complexes between the products of lipid oxidation and thiobarbituric acid. These complexes are called TBARS (thiobarbituric acid reactive substances) and give the test its name: TBARS Test.
In order to mimic chemical oxidative stress, we treated a fibroblast line (L929) with a complex consisting of hydrogen peroxide (H2O2) and iron (Fe^2+/Fe^3+) thus reconstituting the Fenton reaction which is the source of oxygenated free radicals and particularly the hydroxyl radical (OH°) (D. A Vessey et al. 1992): H2O2+Fe^2+→OH°+OH^−+Fe^3+
The products were evaluated on a murin fibroblast line L929. Cells were pretreated with different concentrations of the product for 16 hours and were then stimulated with the H2O2/Fe^2+/Fe^3+ complex (200 μM−1 mM) for 1 hour. • Stock solutions: 100 mg/ml ethanol, 4° C. • Final solutions: 0.02 ng/ml.
Peroxidation of membrane lipids was analysed by measuring TBARS (Protocol ref. PLN°2, according to Morliere et al, 1991).
[…]. TBARS assays are therefore expressed in pmole/μg of protein. Proteins and TBARS are assayed in the intracellular medium.
Using the TBARS calculation in pmole/μg protein, we calculated the protective efficacy of various products against the oxidation of lipid membranes.
Four separate experiments were carried out. Several compounds were evaluated in the course of these experiments (the test only allows 10 molecules to be evaluated at one time). The compounds were evaluated several times and were chosen as a function of the results obtained in another test which also measured anti-radical activity (assay test for activated oxygen species).
The model used in this experiment (Fenton reaction) triggers considerable lipid peroxidation of the L929 fibroblasts. This massive release of the hydroxyl radical OH° thus generates oxidative stress in the cells, particularly in the membranes. However, in this type of oxidative reaction, the products resulting from lipid peroxidation are internalized in the cells and TBARS are therefore assayed in the intracellular medium.

SMILES	Induction Factor vs Control (CaCl2 1.2 mM) TG1 ([1]; 1 μg/ml)	Induction Factor vs Control (CaCl2 1.2 mM) ABCG1 ([2]; 1 μg/ml)	Induction Factor vs Control (CaCl2 1.2 mM) FATP4 ([3]; 1 μg/ml)	Induction Factor vs Control (CaCl2 1.2 mM) DES2 ([4]; 1 μg/ml)	Percentage inhibition of the intracellular production of AOS ([5]; 0.02 ng/ml)	Percentage inhibition of the intracellular production of AOS ([5]; 0.2 ng/ml)	Percentage inhibition of the intracellular production of AOS ([5]; 2 ng/ml)	Percentage inhibition of the intracellular production of AOS ([5]; 20 ng/ml)	% membrane lipid protection, Mean [6]	Induction Factor vs Control (CaCl2 1.2 mM) TG1 ([1]; 100 μg/ml)	Induction Factor vs Control (CaCl2 1.2 mM) ABCG1 ([2]; 100 μg/ml)	Induction Factor vs Control (CaCl2 1.2 mM) FATP4 ([3]; 100 μg/ml)	Induction Factor vs Control (CaCl2 1.2 mM) DES2 ([4]; 100 μg/ml)
O=C(O)/C=C/CCCCCCO [n=5, R=H, Rn=H, R1=H, 9-hydroxy-nona-2t-enoic acid]	1.5	2.7	1.0	1.8	56%	47%	46%	36%					
O=C(O)C(F)=CCCCCCCCCCCCCCCCO (mixture of isomers) [n=14, R=H, Rn=H, R1=F]	1.7	4.0	1.0	2.8	6%	−17%	−26%	−42%	35.30%				
O=C(O)C(F)=CCCCCO (mixture of isomers) [n=3, R=H, Rn=H, R1=F]	1.5	1.5	1.2	1.7	3%	−3%	−32%	−51%	38.14%	0.9	1.2	1.2	1.9
